# Source: patent US20260297060A1, “COMPOUNDS FOR THE DEGRADATION OF MUTANT BRAF” (C4 THERAPEUTICS, INC., priority 2023, published 2026)
# Read-outs that look alike come from different tables or passages of the source.
# Experiments:
# [1] = tested on: A375 human melanoma xenografts; test: Example 6 efficacy study in A375 human melanoma xenografts (tumor volume, T/C, TGI); assay type: in vivo, BALB/c nude mice; conditions: p.o., QD × 21 days; for T/C / TGI / Tumor Size on PG-D21: PG-D21; for Tumor Size on PG-D21 / Tumor volume: Mean ± SEM
# Procedure: (§1) For efficacy study, compounds were tested in the A375 human melanoma xenografts. Known BRAF inhibitors encorafenib, and dabrafenib were used as positive controls. Encorafenib and dabrafenib were administered to BALB/c nude mice bearing A375 tumors on PG-D1 and dosed PO daily (QD) for 3 weeks. Encorafenib was dosed at 35 mg/kg. Dabrafenib was dosed at 100 mg/kg. Compound 83, Compound 93, Compound 70, and Compound 54 were administered to BALB/c nude mice bearing A375 tumors on PG-DO and dosed PO twice per day (BID) for 3 weeks. Compound 83, Compound 93, Compound 70, and Compound 54 were dosed at 10 mg/kg.
# The A375 tumor cells were maintained in vitro in DMEM medium supplemented with […] and 1% Penicillin-Streptomycin at 37° C. in an atmosphere of 5% CO2 in air. The tumor cells were routinely subcultured twice weekly. The cells growing in an exponential growth phase were harvested and counted for tumor inoculation.
# Each mouse was inoculated subcutaneously at the right flank with A375 tumor cells (5×10^6) in 0.2 mL of PBS with Matrigel (PBS: Matrigel=1:1) supplemented for tumor development. Animals were grouped for the treatment on day 16 after tumor inoculation when the average tumor volume reached 221 mm^3 for efficacy study and 386 mm^3 for PKPD study. The test articles administration and the animal numbers in each group are shown in the above experimental Tables.
# Prior to the onset of drug treatment, mice were measured for tumor size in two dimensions using a caliper, and the tumor volume (mm^3) was calculated using formula V=0.5 a×b^2 where a and b are the long and short diameters of the tumor in mm, respectively. Mice were randomized into different treatment groups based on the tumor volume.
# The major endpoint was to see if the tumor growth could be delayed or mice could be cured. The tumor size was then used for calculations of T/C value. The T/C value (in percent) is an indication of antitumor effectiveness; T and C are the mean volumes of the treated and control groups, respectively on specified day.
# TGI was calculated for each group using the formula: TGI (%)=[1−(Ti−T0)/(Ci−C0)]×100; Ti is the average tumor volume of a treatment group on a given day, T0 is the average tumor volume of the treatment group on the day of treatment start, Ci is the average tumor volume of the vehicle control group on the same day with Ti, and C0 is the average tumor volume of the vehicle group on the day of treatment start.
# [2] = Example 6 pharmacokinetics assay for efficacy study (plasma, liver); assay type: in vivo, BALB/c nude mice; conditions: mouse, po, p.o., QD × 21 days
# Procedure: as §1
# The plasma samples were collected at predetermined time points for PK analysis. The mice were euthanized at predetermined time points post the treatment. The blood samples were collected into the 1.5 mL Eppendorf tubes containing 15 μL of 0.5 M EDTA-K2. And then the anticoagulant blood samples were centrifuged at 2,500 g at 4° C. for 15 minutes. The plasma samples were separated into 2 aliquots. The 1st was used for PK analysis, and the 2nd served as backup. The samples were stored at −80° C. before bioanalysis.
# Liver samples were collected at predetermined time points for PK analysis. The left lobe of the liver was dissected out and split into 2 parts. The 1st part was used for PK analysis and the 2nd part served as the backup for the study. The samples were transferred into pre-labeled tubes and quickly froze in liquid nitrogen within 2 minutes after dissection. The samples were stored at −80° C. before bioanalysis.
# For efficacy study, the harvested plasma and liver were processed for pharmacokinetics analysis by LC/MS/MS with a concentration range of 2.00-2000 ng/mL for Encorafenib and Dabrafenib in plasma, 0.20-200 ng/mL for Encorafenib and Dabrafenib in liver, 50.0-50000 ng/mL for compound 83 and compound 70 in plasma, 20.0-20000 ng/mL for Compound 93 and Compound 54 in plasma, 5.00-5000 ng/mL for compound 93, compound 83, compound 70 and compound 54 in liver.
structure (smiles),measurement,setting,value
"COC(=O)N[C@@H](C)CNc1nccc(-c2cn(C(C)C)nc2-c2cc(Cl)cc(NS(C)(=O)=O)c2F)n1 [Encorafenib, encorafenib, reference compound]",T/C,[1]; 35 mg/kg,10.6%
same,TGI,[1]; 35 mg/kg,99.3%
same,Tumor Size on PG-D21,[1]; 35 mg/kg,235 ± 68 mm^3
same,Tumor volume,"[1]; 35 mg/kg, day 0",221 ± 10 mm^3
same,Tumor volume,"[1]; 35 mg/kg, day 4",260 ± 22 mm^3
same,Tumor volume,"[1]; 35 mg/kg, day 7",278 ± 17 mm^3
same,Tumor volume,"[1]; 35 mg/kg, day 11",238 ± 18 mm^3
same,Tumor volume,"[1]; 35 mg/kg, day 14",209 ± 31 mm^3
same,Tumor volume,"[1]; 35 mg/kg, day 18",196 ± 47 mm^3
same,Tumor volume,"[1]; 35 mg/kg, day 21",235 ± 68 mm^3
same,concentration at 6 h,"[2]; liver, 35 mg/kg, read-out: Concentration in Liver (mean ± SEM)",481 ± 272 ng/g
same,concentration at 6 h,"[2]; plasma, 35 mg/kg, read-out: Concentration in Plasma (mean ± SEM)",0.992 ± 0.559 µg/mL
"CC(C)(C)c1nc(-c2cccc(NS(=O)(=O)c3c(F)cccc3F)c2F)c(-c2ccnc(N)n2)s1 [Dabrafenib, dabrafenib, reference compound]",T/C,[1]; 100 mg/kg,26.6%
same,TGI,[1]; 100 mg/kg,81.5%
same,Tumor Size on PG-D21,[1]; 100 mg/kg,588 ± 244 mm^3
same,Tumor volume,"[1]; 100 mg/kg, day 0",221 ± 10 mm^3
same,Tumor volume,"[1]; 100 mg/kg, day 4",288 ± 19 mm^3
same,Tumor volume,"[1]; 100 mg/kg, day 7",348 ± 33 mm^3
same,Tumor volume,"[1]; 100 mg/kg, day 11",383 ± 64 mm^3
same,Tumor volume,"[1]; 100 mg/kg, day 14",407 ± 122 mm^3
same,Tumor volume,"[1]; 100 mg/kg, day 18",454 ± 159 mm^3
same,Tumor volume,"[1]; 100 mg/kg, day 21",588 ± 244 mm^3
same,concentration at 6 h,"[2]; liver, 100 mg/kg, read-out: Concentration in Liver (mean ± SEM)",216 ± 30.8 ng/g
same,concentration at 6 h,"[2]; plasma, 100 mg/kg, read-out: Concentration in Plasma (mean ± SEM)",0.0861 ± 0.0154 µg/mL
